# Assays:
# [1] = target: isolated PKCδ C1b domain; details: read-out: Kd for the isolated PKCδ C1b domain; cited from earlier work
# [2] = tested on: EGFP-tagged PKCδ in CHO cells; assay: Translocation of EGFP-tagged PKCδ in CHO cells, confocal microscopy; assay type: cell-based, Chinese hamster; details: 10 μM compound, images at 0, 5 and 10 min
# [3] = tested on: isolated PKCδ C1a domain; details: cited from earlier work
# [4] = target: PKCδ C1b domain (Mus musculus, UniProt P28867); assay: [3H]PDBu competitive binding assay, isolated C1b domain of PKCδ; details: read-out: Kd for the binding of [3H]PDBu to the PKCδ C1b
# Sequence of PKCδ C1b domain (P28867 231-280 limits assumed): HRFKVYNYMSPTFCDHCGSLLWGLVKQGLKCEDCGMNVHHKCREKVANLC
# [5] = tested on: C1a and C1b domains of PKCε; details: C1a vs C1b; cited from earlier work
# [6] = tested on: EGFP-tagged PKCε in LNCaP cells; assay: Translocation of GFP-tagged PKCε in LNCaP cells, confocal microscopy; assay type: cell-based, human; details: 1 μM, single experiment
Molecule,Kd [1] [nM],translocation of EGFP-PKCδ from cytosol to plasma membranes [2],"difference in Kd between isolated PKCδ C1a and C1b domains ([3]; C1a vs C1b, isolated domains) [fold]",Kd ([3]; read-out: Kd for the isolated PKCδ C1a domain) [nM],Kd [4] [nM],difference in affinity between the C1a and C1b domains of PKCε [5] [fold],plasma membrane translocation of PKCε [6]
"CCCC(=O)O[C@@H]1[C@@H](C)[C@@]2(O)[C@@H](C=C(CO)C[C@]3(O)C(=O)C(C)=C[C@@H]23)[C@@H]2C(C)(C)[C@]12OC(=O)CCC [PDBu, phorbol 12,13-dibutyrate]",0.33,not observed more clearly than those by monomeric and dimeric DAG–lactones,6,2,0.19,–,–
"CCCCCCCCCCCCCC(=O)O[C@@H]1[C@@H](C)[C@@]2(O)[C@@H](C=C(CO)C[C@]3(O)C(=O)C(C)=C[C@@H]23)[C@@H]2C(C)(C)[C@]12OC(C)=O [PMA, phorbol 12-myristate 13-acetate]",–,–,–,–,–,≤ 3,dramatic plasma membrane translocation
"sn-1,2-diacylglycerol [DAG]",–,–,–,–,–,≤ 3,–

# From PMC6957264 (Bioconjugate chemistry, 2017)
